Experimental data reported in patent publication US20230279000A1, “PYRIDOPYRIMIDINE DERIVATIVES USEFUL IN MODULATION OF AHR SIGNALLING” (JAGUAHR THERAPEUTICS PTE LTD, priority 2020, published 2023).
Counter-ions that a name gives are not always drawn.

What was measured:
AhR [1] = target: T1, AhR (Homo sapiens, UniProt P35869); experiment: AhR antagonism in U937 cells (Promega P450-Glo assay); assay type: cell-based; conditions: inhibition of 4.5 nM VAF347 agonist response, CYP1A1 activity (Luciferin-CEE) after 24 hrs, arithmetic mean of two or more tests, read-out: U937 Assay (pIC50) (converted)
T1 construct: PBMCs were isolated from human peripheral blood using Lymphoprep; endogenous in cells
T1 sequence (P35869 11-848): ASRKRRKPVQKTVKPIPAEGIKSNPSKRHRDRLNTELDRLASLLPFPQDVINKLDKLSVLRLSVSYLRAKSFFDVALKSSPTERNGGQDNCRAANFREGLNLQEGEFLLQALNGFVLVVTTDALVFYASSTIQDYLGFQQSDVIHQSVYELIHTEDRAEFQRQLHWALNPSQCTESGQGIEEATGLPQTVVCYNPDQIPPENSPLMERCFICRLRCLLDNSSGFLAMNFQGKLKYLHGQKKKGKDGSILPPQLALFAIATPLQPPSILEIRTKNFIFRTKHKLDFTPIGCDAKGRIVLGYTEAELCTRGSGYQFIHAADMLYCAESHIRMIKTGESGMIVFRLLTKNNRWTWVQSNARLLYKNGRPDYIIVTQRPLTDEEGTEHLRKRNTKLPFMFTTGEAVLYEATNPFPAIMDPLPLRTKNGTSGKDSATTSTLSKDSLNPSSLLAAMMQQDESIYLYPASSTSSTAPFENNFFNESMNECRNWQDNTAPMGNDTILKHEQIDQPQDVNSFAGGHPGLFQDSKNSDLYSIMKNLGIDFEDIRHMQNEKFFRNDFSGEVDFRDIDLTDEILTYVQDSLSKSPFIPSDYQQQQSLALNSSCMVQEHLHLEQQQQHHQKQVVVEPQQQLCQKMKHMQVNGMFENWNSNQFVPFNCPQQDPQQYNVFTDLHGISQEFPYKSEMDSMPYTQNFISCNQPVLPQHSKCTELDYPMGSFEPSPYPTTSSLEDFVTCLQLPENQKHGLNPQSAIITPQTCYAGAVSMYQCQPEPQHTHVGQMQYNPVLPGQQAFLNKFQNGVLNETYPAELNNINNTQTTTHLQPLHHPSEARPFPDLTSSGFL
Procedure: (§1) Examples were tested in selected biological assays two or more times. Data are reported as the arithmetic mean of the pIC50 (-log10IC50) values, where IC50 is defined as the concentration of compound producing a 50% inhibition of the agonist response. In the case of the U937 assay, VAF347 was used as the agonist; in the peripheral blood mononuclear cell (PBMC) assay the effects of the test compounds are assessed against endogenously produced AhR agonists generated following PBMC activation.
In Vitro Assay 1: AhR Antagonism in U937 Cells (Promega P450-Glo™ Assay)
AhR antagonism was assessed in U937 cells (myeloid lineage cell line derived from a human histiocytic lymphoma). Ligand binds the AhR in the cytoplasm, and the AhR-ligand complex translocates to the nucleus and forms a heterodimer with AhR nuclear translocator (Arnt). This complex binds the xenobiotic response element (XRE) in the 5′ upstream region of the CYP1A1 promoter, enhancing CYP1A1 expression. CYP1A1 activity is subsequently determined by assessing the conversion of Luciferin-CEE to luciferin, which in turn reacts with luciferase to produce light. The amount of light produced is directly proportional to cytochrome P450 activity.
U937 cells in Ultraculture serum free media (Lonza) were plated at 100,000 cells per well in a round bottom 96 well tissue culture plate. Seven concentrations of test compound (final [DMSO] 1%) were added and incubated for 10 minutes before the addition of 4.5 nM VAF347. The plates were then placed in an incubator at 37° C., ≥ 85% humidity, 5% CO2 for 24 hrs. After aspiration of the supernatant the CYP1A1 substrate Luciferin-CEE ([Final] 83 µM) was added and incubated for 3 hrs before the reaction was stopped by adding luciferin detection reagent and luminescence was read after 20 minutes.

AhR [2] = target: T1, AhR; experiment: AhR antagonism in human PBMCs - inhibition of interleukin-22 (IL-22) release; assay type: cell-based; conditions: human PBMCs activated with CD3/CD28 agonist; IL-22 release after 72 hrs, against endogenously produced AhR agonists; arithmetic mean of two or more tests; read-out: PBMC Assay (pIC50) (converted)
Procedure: as §1
In Vitro Assay 2: AhR Antagonism in Human Peripheral Blood Mononuclear Cells (PBMCS) -Inhibition of Interleukin-22 (IL-22) Release
PBMCs were isolated from human peripheral blood using Lymphoprep™ and diluted to 1 × 10^6 cells per ml in RPMI media containing 10% foetal bovine serum, 1% penicillin-streptomycin and 1% non-essential amino acids. PBMCs were subsequently activated with 1 µl per 100,000 cells of a CD3/CD28 agonist mixture (human T Cell TransAct™(Miltenyi Biotec)) and then plated at 100,000 cells per well in a round bottom 96 well tissue culture plate. One hour after stimulation seven concentrations of each test compound or vehicle (final [DMSO] 0.2%) were added. The plates were then placed in an incubator at 37° C., ≥ 85% humidity, 5% CO2 for 72 hrs before the media was removed and stored at -20° C. until cytokine analysis. IL-22 was measured using human IL-22 DuoSet ELISA (R&D systems) according to the manufacturer’s instructions.

IC50 (AhR [1])	IC50 (AhR [2])	Structure (SMILES)
126 nM	126 nM	COc1ccc2c(CCNc3nc(-c4cncc(F)c4)nc4c3CCNC4)c[nH]c2c1 [Example 1, 2-(5-fluoropyridin-3-yl)-N-[2-(6-methoxy-1H-indol-3-yl)ethyl]-5H,6H,7H,8H-pyrido[3,4-d]pyrimidin-4-amine]
200 nM	398 nM	COc1ccc2c(CCNc3nc(-c4cncc(F)c4)nc4c3CNC4)c[nH]c2c1 [Example 5, 2-(5-fluoropyridin-3-yl)-N-[2-(6-methoxy-1H-indol-3-yl)ethyl]-5H,6H,7H-pyrrolo[3,4-d]pyrimidin-4-amine]
20 nM	794 nM	COc1cncc(-c2nc3c(c(NCCc4c[nH]c5ccccc45)n2)CCNC3)c1 [Example 9, N-[2-(1H-indol-3-yl)ethyl]-2-(5-methoxypyridin-3-yl)-5H,6H,7H,8H-pyrido[3,4-d]pyrimidin-4-amine]
25.1 nM	794 nM	FC(F)(F)c1cncc(-c2nc3c(c(NCCc4c[nH]c5ccccc45)n2)CCNC3)c1 [Example 10, N-[2-(1H-indol-3-yl)ethyl]-2-[5-(trifluoromethyl)pyridin-3-yl]-5H,6H,7H,8H-pyrido[3,4-d]pyrimidin-4-amine]
100 nM	631 nM	COc1ccc2[nH]c(C)c(CCNc3nc(-c4cncc(F)c4)nc4c3CCNC4)c2c1 [Example 14, 2-(5-Fluoropyridin-3-yl)-4-{[2-(5-Methoxy-2-Methyl-1H-Indol-3-yl)Ethyl]Amino}-5H,6H,7H,8H-Pyrido[3,4-d]Pyrimidin-7-ium Chloride]
158 nM	631 nM	CCN1CCc2nc(-c3cncc(F)c3)nc(NCCc3c[nH]c4cc(OC)ccc34)c2CC1 [Example 15, 7-ethyl-2-(5-fluoropyridin-3-yl)-N-[2-(6-methoxy-1H-indol-3-yl)ethyl]-5H,6H,7H,8H,9H-pyrimido[4,5-d]azepin-4-amine]
316 nM	200 nM	COc1ccc2c(CCNc3nc(-c4cncc(F)c4)nc4c3CCNCC4)c[nH]c2c1 [Example 16, 2-(5-fluoropyridin-3-yl)-N-[2-(6-methoxy-1H-indol-3-yl)ethyl]-5H,6H,7H,8H,9H-pyrimido[4,5-d]azepin-4-amine]
50.1 nM	25.1 nM	COc1ccc2c(CCOc3nc(-c4cncc(F)c4)nc4c3CCNC4)c[nH]c2c1 [Example 17, 3-(2-{[2-(5-Fluoropyridin-3-yl)-5H,6H,7H,8H-Pyrido[3,4-d]Pyrimidin-4-yl]Oxy}Ethyl)-6-Methoxy-1H-Indole Hydrochloride]
20 nM	316 nM	Fc1cncc(-c2nc3c(c(NCCc4c(C(F)(F)F)[nH]c5ccccc45)n2)CCNC3)c1 [Example 18, 2-(5-Fluoropyridin-3-yl)-4-({2-[2-(Trifluoromethyl)-1H-Indol-3-yl]Ethyl}Amino)-5H,6H,7H,8H-Pyrido[3,4-d]Pyrimidin-7-ium Chloride]
